Laboratory results published in patent publication US8853418B2, “Cyclopentylpyrazoles as N-type calcium channel blockers” (Janssen Pharmaceutica NV, priority 2012, dated 2014).

Target: N-type calcium channel (α1B (Cav2.2), β3 and α2δ subunits) (Homo sapiens, UniProt Q00975)
Test: Functional Assay: Antagonism of N-Type Calcium Channel (FDSS calcium mobilization, KCl depolarization)
Assay type: cell-based
Details: for IC50: HEK cell line, 50 mM KCl depolarization, six-point concentration-response, read-out: FDSS IC50
Procedure: A stable cell line (HEK parent) co-expressing the α1B (Cav2.2), β3 and α2δ subunits of the N-type calcium channel subunits was used. These cells were routinely grown as monolayers in low glucose-containing Dulbecco's Modified Eagle Medium supplemented with 10% FBS, 2 mM L-glutamine, 100 I.U./mL penicillin, 100 μg/mL streptomycin, 400 μg/mL G418 and 200 μg/mL Zeocin (split ratio=1:5). Cells were maintained in 5% CO2 at 37° C. Compounds of Formula (I) were prepared as 10 mM stocks in DMSO from neat compound, if available. Otherwise, the 5 or 10 mM DMSO stock solutions provided in-house were used.
Calcium mobilization responses to KCl depolarization were evaluated by measuring the intensity of calcium-mediated fluorescent signal in the presence of BD Calcium Assay Dye (BD Biosciences, Franklin Lakes, N.J., U.S.A.), utilizing a Functional Drug Screening System (FDSS) by Hamamatsu Corporation (Bridgewater, N.J. U.S.A.).
Twenty-four hr prior to assay, cells were seeded in clear-base poly-D-lysine-coated 384-well plates (BD Biosciences) at a density of 5,000 cells per well in culture medium and grown overnight in 5% CO2 at 37° C. On the day of assay, growth media were removed, and cells were loaded with BD calcium assay dye (BD Biosciences) for 35 min at 37° C. under 5% CO2 and then for 25 min at room temp. Utilizing the FDSS, cells were exposed to representative compounds of Formula (I) at varying concentrations, and intracellular calcium was measured for 5 min prior to the addition of 50 mM KCl for an additional 3 min of measurement.
Calculations and Formulas
IC50 values for representative compounds of Formula (I) were determined from six-point concentration-response experiments and represent the concentration of said compound required to inhibit 50% of the maximal response. Maximal fluorescence intensity (FI) achieved upon addition of 50 mM KCl was exported from the FDSS software and further analyzed using GraphPad Prism 3.02 (Graph Pad Software Inc., San Diego, Calif., U.S.A.). Data were normalized to the maximum average counts from quadruplicate wells for each condition in the presence of 50 mM KCl and to the minimum average counts in the presence of buffer. Theoretical curves were generated using nonlinear regression curve-fitting analysis of either sigmoidal concentration-response or sigmoidal concentration-response (variable slope), and the IC50 values with the best-fit curve determined by GraphPad Prism were reported.

Sequence of N-type calcium channel (α1B (Cav2.2), β3 and α2δ subunits) (Q00975 whole entry): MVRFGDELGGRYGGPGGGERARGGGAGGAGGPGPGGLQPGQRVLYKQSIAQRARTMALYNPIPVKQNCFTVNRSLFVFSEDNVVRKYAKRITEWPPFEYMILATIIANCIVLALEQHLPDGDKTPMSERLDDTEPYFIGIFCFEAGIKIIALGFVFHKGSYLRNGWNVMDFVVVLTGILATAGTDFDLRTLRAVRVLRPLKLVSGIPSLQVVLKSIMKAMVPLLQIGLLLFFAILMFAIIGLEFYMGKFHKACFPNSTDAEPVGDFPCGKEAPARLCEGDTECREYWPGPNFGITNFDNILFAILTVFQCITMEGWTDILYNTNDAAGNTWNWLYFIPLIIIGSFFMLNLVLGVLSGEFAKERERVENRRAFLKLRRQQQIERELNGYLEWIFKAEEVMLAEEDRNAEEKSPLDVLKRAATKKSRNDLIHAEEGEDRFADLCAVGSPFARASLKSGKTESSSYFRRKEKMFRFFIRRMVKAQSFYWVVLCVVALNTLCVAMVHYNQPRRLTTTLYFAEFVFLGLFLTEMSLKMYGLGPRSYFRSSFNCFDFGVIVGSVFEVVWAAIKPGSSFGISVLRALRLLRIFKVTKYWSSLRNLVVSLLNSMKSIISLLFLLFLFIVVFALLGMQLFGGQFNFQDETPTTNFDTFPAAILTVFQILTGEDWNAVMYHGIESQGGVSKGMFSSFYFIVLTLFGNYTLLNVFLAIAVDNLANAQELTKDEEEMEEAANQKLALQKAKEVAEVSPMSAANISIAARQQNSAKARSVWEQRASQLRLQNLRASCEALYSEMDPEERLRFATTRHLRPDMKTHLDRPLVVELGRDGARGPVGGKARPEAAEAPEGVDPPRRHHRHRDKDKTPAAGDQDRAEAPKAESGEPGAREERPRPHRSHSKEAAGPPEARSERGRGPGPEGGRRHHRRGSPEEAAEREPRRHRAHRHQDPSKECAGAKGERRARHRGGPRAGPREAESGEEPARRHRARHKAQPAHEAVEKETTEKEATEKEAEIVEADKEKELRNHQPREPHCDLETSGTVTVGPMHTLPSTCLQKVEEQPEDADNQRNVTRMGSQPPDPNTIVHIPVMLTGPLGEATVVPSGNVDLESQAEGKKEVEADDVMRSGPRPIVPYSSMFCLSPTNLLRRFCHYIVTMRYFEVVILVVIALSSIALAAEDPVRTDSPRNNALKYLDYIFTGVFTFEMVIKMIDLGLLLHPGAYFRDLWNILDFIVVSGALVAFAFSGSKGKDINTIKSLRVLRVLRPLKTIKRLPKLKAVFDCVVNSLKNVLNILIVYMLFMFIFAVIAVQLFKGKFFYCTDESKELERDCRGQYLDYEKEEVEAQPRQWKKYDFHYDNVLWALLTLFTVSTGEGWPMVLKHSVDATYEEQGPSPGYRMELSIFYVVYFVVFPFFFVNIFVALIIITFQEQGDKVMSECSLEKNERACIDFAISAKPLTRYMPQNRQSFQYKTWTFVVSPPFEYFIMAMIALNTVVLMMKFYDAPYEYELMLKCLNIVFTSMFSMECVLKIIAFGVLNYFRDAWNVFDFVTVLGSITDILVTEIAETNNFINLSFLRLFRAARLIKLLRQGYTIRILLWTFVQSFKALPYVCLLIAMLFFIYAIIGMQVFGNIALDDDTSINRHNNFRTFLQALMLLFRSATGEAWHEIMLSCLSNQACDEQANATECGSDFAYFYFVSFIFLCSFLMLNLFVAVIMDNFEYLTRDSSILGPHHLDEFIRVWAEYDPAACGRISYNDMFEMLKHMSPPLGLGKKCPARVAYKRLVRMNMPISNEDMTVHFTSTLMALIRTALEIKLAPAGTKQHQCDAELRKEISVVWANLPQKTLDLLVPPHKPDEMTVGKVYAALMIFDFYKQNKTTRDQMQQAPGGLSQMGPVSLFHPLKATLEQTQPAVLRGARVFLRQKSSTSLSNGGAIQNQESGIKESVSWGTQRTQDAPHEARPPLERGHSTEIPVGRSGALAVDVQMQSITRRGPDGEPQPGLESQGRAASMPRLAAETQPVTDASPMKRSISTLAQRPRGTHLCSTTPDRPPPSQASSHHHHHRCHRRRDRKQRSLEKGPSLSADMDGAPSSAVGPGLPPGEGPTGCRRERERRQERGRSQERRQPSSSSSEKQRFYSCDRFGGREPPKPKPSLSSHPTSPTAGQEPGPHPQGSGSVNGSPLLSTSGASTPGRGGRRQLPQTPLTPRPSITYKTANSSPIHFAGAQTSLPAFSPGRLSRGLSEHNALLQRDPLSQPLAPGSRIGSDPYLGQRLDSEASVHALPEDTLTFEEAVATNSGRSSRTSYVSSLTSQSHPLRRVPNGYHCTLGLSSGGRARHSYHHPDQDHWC
Sequence of N-type calcium channel (α1B (Cav2.2), β3 and α2δ subunits) (P54284 whole entry partner): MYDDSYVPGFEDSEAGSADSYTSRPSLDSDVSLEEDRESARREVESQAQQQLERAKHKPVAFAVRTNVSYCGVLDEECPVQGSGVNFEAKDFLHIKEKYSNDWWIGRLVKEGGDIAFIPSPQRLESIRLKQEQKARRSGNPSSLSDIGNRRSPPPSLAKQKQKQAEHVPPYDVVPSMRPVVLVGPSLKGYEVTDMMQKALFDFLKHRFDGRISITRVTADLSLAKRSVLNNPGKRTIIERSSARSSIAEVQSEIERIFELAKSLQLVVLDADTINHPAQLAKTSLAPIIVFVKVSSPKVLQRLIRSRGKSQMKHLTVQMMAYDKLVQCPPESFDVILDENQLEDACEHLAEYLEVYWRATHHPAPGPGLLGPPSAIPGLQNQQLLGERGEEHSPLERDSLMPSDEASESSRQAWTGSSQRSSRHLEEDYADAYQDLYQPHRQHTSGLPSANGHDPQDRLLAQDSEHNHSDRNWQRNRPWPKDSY
Sequence of N-type calcium channel (α1B (Cav2.2), β3 and α2δ subunits) (P54289 25-946 partner limits assumed): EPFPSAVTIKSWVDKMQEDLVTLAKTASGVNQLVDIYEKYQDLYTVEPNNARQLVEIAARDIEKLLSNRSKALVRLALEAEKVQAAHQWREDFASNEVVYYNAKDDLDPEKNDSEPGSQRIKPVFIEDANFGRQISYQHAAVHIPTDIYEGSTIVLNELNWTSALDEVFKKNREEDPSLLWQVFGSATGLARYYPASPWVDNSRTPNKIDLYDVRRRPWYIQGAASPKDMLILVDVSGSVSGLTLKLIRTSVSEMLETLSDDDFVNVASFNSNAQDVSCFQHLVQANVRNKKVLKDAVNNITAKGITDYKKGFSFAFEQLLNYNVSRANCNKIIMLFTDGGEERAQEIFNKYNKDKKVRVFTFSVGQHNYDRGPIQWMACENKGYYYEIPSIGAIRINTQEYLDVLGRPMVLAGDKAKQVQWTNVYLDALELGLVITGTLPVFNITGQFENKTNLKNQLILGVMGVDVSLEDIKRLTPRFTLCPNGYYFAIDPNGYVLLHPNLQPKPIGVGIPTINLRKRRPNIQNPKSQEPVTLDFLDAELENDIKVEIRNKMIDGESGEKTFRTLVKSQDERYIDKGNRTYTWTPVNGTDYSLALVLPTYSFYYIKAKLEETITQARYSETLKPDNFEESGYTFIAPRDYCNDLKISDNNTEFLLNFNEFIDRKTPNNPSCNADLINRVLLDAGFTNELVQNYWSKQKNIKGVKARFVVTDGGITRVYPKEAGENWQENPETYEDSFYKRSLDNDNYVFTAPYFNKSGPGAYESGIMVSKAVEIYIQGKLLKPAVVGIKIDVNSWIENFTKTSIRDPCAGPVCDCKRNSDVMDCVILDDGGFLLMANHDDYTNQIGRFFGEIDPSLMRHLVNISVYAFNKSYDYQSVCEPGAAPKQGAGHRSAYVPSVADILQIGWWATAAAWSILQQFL
Sequence of N-type calcium channel (α1B (Cav2.2), β3 and α2δ subunits) (P54289 947-1103 partner limits assumed): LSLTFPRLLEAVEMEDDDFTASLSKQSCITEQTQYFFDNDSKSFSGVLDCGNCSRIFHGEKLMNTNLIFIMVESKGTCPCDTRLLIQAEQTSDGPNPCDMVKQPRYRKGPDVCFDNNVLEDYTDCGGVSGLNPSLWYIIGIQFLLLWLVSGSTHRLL

inhibition at 0.33 µM | IC50 | inhibition at 1 µM | Compound
77% | 48 nM | – | COc1ccccc1-n1nc2c(c1-c1ccc(Cl)cc1)CC(N1CC(C)OC(C)C1)C2 (stereo not drawn) [Compound 116, 3-(4-chlorophenyl)-5-(2,6-dimethylmorpholin-4-yl)-2-(2-methoxyphenyl)-2,4,5,6-tetrahydrocyclopenta[c]pyrazole]
67% | 105 nM | – | COc1ccccc1-n1nc2c(c1-c1ccc(C#N)cc1)C[C@H](n1cnc(C)c1C)C2 [Compound 131, 4-[(5S)-5-(4,5-dimethyl-1H-imidazol-1-yl)-2-(2-methoxyphenyl)-2,4,5,6-tetrahydrocyclopenta[c]pyrazol-3-yl]benzonitrile]
67% | 110 nM | – | COc1ccccc1-n1nc2c(c1-c1ccc(C)nc1)CC1(C2)OCC(C)(C)CO1 [Compound 95, 2-(2-methoxyphenyl)-5′,5′-dimethyl-3-(6-methylpyridin-3-yl)-2,6-dihydro-4H-spiro[cyclopenta[c]pyrazole-5,2′-[1,3]dioxane]]
70% | 81 nM | – | COC(=O)c1cn([C@@H]2Cc3nn(-c4ccccc4OC)c(-c4ccc(C#N)cc4)c3C2)nn1 [Compound 125, methyl 1-[(5S)-3-(4-cyanophenyl)-2-(2-methoxyphenyl)-2,4,5,6-tetrahydrocyclopenta[c]pyrazol-5-yl]-1H-1,2,3-triazole-4-carboxylate]
33% | – | – | COc1ccccc1-n1nc2c(c1-c1ccc(Cl)cc1)CC(N1CCCC1)C2 (stereo not drawn) [Compound 122, 3-(4-chlorophenyl)-2-(2-methoxyphenyl)-5-pyrrolidin-1-yl-2,4,5,6-tetrahydrocyclopenta[c]pyrazole]
– | 180 nM | – | CCc1ccccc1-n1nc2c(c1-c1ccc(Cl)cc1)CC(COC(=O)N(CC)CC)C2 (stereo not drawn) [Compound 17, [3-(4-chlorophenyl)-2-(2-ethylphenyl)-2,4,5,6-tetrahydrocyclopenta[c]pyrazol-5-yl]methyl diethylcarbamate]
– | 130 nM | – | CCc1ccccc1-n1nc2c(c1-c1ccc(Cl)cc1)CC(CNC(=O)C(F)(F)F)C2 (stereo not drawn) [Compound 19, N-{[3-(4-chlorophenyl)-2-(2-ethylphenyl)-2,4,5,6-tetrahydrocyclopenta[c]pyrazol-5-yl]methyl}-2,2,2-trifluoroacetamide]
– | – | 65% | CS(=O)(=O)NCCC1Cc2nn(-c3ccccc3C(F)(F)F)c(-c3ccc(Cl)cc3)c2C1 (stereo not drawn) [Compound 21, N-(2-{3-(4-chlorophenyl)-2-[2-(trifluoromethyl)phenyl]-2,4,5,6-tetrahydrocyclopenta[c]pyrazol-5-yl}ethyl)methanesulfonamide]
– | 220 nM | – | CN(C)C(=O)NCCC1Cc2nn(-c3ccccc3C(F)(F)F)c(-c3ccc(Cl)cc3)c2C1 (stereo not drawn) [Compound 22, 3-(2-{3-(4-chlorophenyl)-2-[2-(trifluoromethyl)phenyl]-2,4,5,6-tetrahydrocyclopenta[c]pyrazol-5-yl}ethyl)-1,1-dimethylurea]
– | 90 nM | – | CCOC(=O)C1Cc2nn(-c3ccccc3CC)c(-c3ccc(Cl)cc3)c2C1 (stereo not drawn) [Compound 14, ethyl 3-(4-chlorophenyl)-2-(2-ethylphenyl)-2,4,5,6-tetrahydrocyclopenta[c]pyrazole-5-carboxylate]
81% | 86 nM | – | COc1ccccc1-n1nc2c(c1-c1ccc(Cl)cc1)CC(c1ccc(C)nc1)C2 (stereo not drawn) [Compound 73, 3-(4-chlorophenyl)-2-(2-methoxyphenyl)-5-(6-methylpyridin-3-yl)-2,4,5,6-tetrahydrocyclopenta[c]pyrazole]
– | 19 nM | – | CCOc1ccccc1-n1nc2c(c1-c1ccc(Cl)cc1)CC(N1CCCC1=O)C2 (stereo not drawn) [Compound 40, 1-[3-(4-chlorophenyl)-2-(2-ethoxyphenyl)-2,4,5,6-tetrahydrocyclopenta[c]pyrazol-5-yl]pyrrolidin-2-one]
76% | 52 nM | – | COc1ccccc1-n1nc2c(c1-c1ccc(Cl)cc1)C[C@@H](OC)C2 [Compound 49, (5R)-3-(4-chlorophenyl)-5-methoxy-2-(2-methoxyphenyl)-2,4,5,6-tetrahydrocyclopenta[c]pyrazole]
– | 140 nM | – | CN(C)C(=O)OC1Cc2nn(-c3ccccc3OC(F)(F)F)c(-c3ccc(Cl)cc3)c2C1 (stereo not drawn) [Compound 23, 3-(4-chlorophenyl)-2-[2-(trifluoromethoxy)phenyl]-2,4,5,6-tetrahydrocyclopenta[c]pyrazol-5-yl dimethylcarbamate]
– | – | 62% | COc1ccccc1-n1nc2c(c1-c1ccc(Cl)cc1)CC(O)C2 (stereo not drawn) [Compound 26, 3-(4-chlorophenyl)-2-(2-methoxyphenyl)-2,4,5,6-tetrahydrocyclopenta[c]pyrazol-5-ol]
76% | 94 nM | – | COc1ccccc1-n1nc2c(c1-c1ccc(Cl)cc1)C[C@H](Oc1cccnc1)C2 [Compound 59, (5S)-3-(4-chlorophenyl)-2-(2-methoxyphenyl)-5-(pyridin-3-yloxy)-2,4,5,6-tetrahydrocyclopenta[c]pyrazole]
77% | 98 nM | – | COc1ccccc1-n1nc2c(c1-c1ccc(Cl)cc1)C[C@@H](Oc1ccccn1)C2 [Compound 61, (5R)-3-(4-chlorophenyl)-2-(2-methoxyphenyl)-5-(pyridin-2-yloxy)-2,4,5,6-tetrahydrocyclopenta[c]pyrazole]
59% | 280 nM | – | COc1ccccc1-n1nc2c(c1-c1ccc(Cl)cc1)CC(C1CNc3ccccc3C1)C2 (stereo not drawn) [Compound 65, 3-[3-(4-chlorophenyl)-2-(2-methoxyphenyl)-2,4,5,6-tetrahydrocyclopenta[c]pyrazol-5-yl]-1,2,3,4-tetrahydroquinoline]
42% | – | – | COc1ccccc1-n1nc2c(c1-c1ccc(Cl)cc1)CC(c1ccc(N3CCOCC3)nc1)C2 (stereo not drawn) [Compound 62, 3-(4-chlorophenyl)-2-(2-methoxyphenyl)-5-(6-morpholin-4-ylpyridin-3-yl)-2,4,5,6-tetrahydrocyclopenta[c]pyrazole]
29% | – | – | COc1ccccc1-n1nc2c(c1-c1ccc(C#N)cc1)C[C@H](n1c(C)nc(C)c1C)C2 [Compound 132, 4-[(5S)-2-(2-methoxyphenyl)-5-(2,4,5-trimethyl-1H-imidazol-1-yl)-2,4,5,6-tetrahydrocyclopenta[c]pyrazol-3-yl]benzonitrile]
44% | – | – | COc1ccccc1-n1nc2c(c1-c1ccc(C#N)cc1)C[C@H](n1ccnc1C)C2 [Compound 135, 4-[(5S)-2-(2-methoxyphenyl)-5-(2-methyl-1H-imidazol-1-yl)-2,4,5,6-tetrahydrocyclopenta[c]pyrazol-3-yl]benzonitrile]
33% | – | – | COc1ccccc1-n1nc2c(c1-c1ccc(C#N)cc1)C[C@H](n1cc(C(C)(C)O)nn1)C2 [Compound 126, 4-[(5S)-5-[4-(1-hydroxy-1-methylethyl)-1H-1,2,3-triazol-1-yl]-2-(2-methoxyphenyl)-2,4,5,6-tetrahydrocyclopenta[c]pyrazol-3-yl]benzonitrile]
83% | 300 nM | – | COc1ccccc1-n1nc2c(c1-c1ccc(Cl)cc1)CC(C#N)C2 (stereo not drawn) [Compound 10, 3-(4-chlorophenyl)-2-(2-methoxyphenyl)-2,4,5,6-tetrahydrocyclopenta[c]pyrazole-5-carbonitrile]
